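GI50 = concentration required for 50% inhibition of growth. TGI: total growth inhibition.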
Experiments:
Assay in all cases: NCI-60 cell line screen, 384-well format
[1] = system: 786-0 renal
[2] = system: A498 renal
[3] = system: A549 NSCLC
[4] = system: ACHN renal
[5] = system: BT-549 breast
[6] = system: CAKI-1 renal
[7] = system: CCRF-CEM leukemia
[8] = system: COLO 205 colon
[9] = system: DU-145 prostate
[10] = system: EKVX NSCLC
[11] = system: HCC-2998 colon
[12] = system: HCT-15 colon
[13] = system: HL-60(TB) leukemia
[14] = system: HOP-62 NSCLC
[15] = system: HOP-92 NSCLC
[16] = system: HS 578T breast
[17] = system: HT29 colon
[18] = system: IGROV1 ovarian
[19] = system: K-562 leukemia
[20] = system: KM12 colon
[21] = system: LOX IMVI melanoma
[22] = system: M14 melanoma
[23] = system: MALME-3M melanoma
[24] = system: MCF7 breast
[25] = system: MDA-MB-231 breast
[26] = system: MDA-MB-435 melanoma
[27] = system: MDA-MB-468 breast
[28] = system: MOLT-4 leukemia
[29] = system: NCI-H226 lung
[30] = system: NCI-H23 lung
[31] = system: NCI-H322M lung
[32] = system: NCI-H460 NSCLC
[33] = system: NCI-H522 lung
[34] = system: NCI/ADR-RES ovarian
[35] = system: OVCAR-3 ovarian
[36] = system: OVCAR-4 ovarian
[37] = system: OVCAR-5 ovarian
[38] = system: OVCAR-8 ovarian
[39] = system: PC-3 prostate
[40] = system: RPMI-8226 leukemia
[41] = system: RXF 393 renal
[42] = system: SF-268 CNS
[43] = system: SF-295 CNS
[44] = system: SF-539 CNS
[45] = system: SK-MEL-28 melanoma
[46] = system: SK-MEL-5 melanoma
[47] = system: SK-OV-3 ovarian
[48] = system: SN12C renal
[49] = system: SNB-19 CNS
[50] = system: SNB-75 CNS
[51] = system: SR leukemia
[52] = system: SW-620 colon
[53] = system: T-47D breast
[54] = system: TK-10 renal
[55] = system: U251 glioblastoma
[56] = system: UACC-257 melanoma
[57] = system: UACC-62 melanoma
[58] = system: UO-31 renal
[59] = system: HCT-116 colon

Work on `CNS(=O)(=O)Nc1nccc(Cc2c(C)c3ccc(Oc4ncccn4)cc3oc2=O)c1F` yielded a GI50 [1] of 98.4 µM, a TGI [1] of over 100 µM and a GI50 [2] of 13.3 µM. The TGI [2] was over 100 µM, the GI50 [3] was 0.42 µM and the TGI [3] was over 100 µM. For the same molecule, the GI50 [4] was 4.16 µM, the TGI [4] was over 100 µM and the GI50 [5] was 39.6 µM. For the same molecule, the TGI [5] was over 100 µM, the GI50 [6] was 0.319 µM and the TGI [6] was over 100 µM. For the same molecule, the GI50 [7] was 5.06 µM, the TGI [7] was 49.1 µM and the GI50 [8] was 0.0151 µM. The TGI [8] was 0.586 µM, the GI50 [9] was 26.4 µM and the TGI [9] was over 100 µM. It also gave a GI50 [10] of 6.39 µM, a TGI [10] of over 100 µM and a GI50 [11] of 0.0142 µM. For the same molecule, the TGI [11] was 0.398 µM, the GI50 [12] was 4.39 µM and the TGI [12] was over 100 µM. It also gave a GI50 [13] of under 0.01 µM, a TGI [13] of over 100 µM and a GI50 [14] of 0.289 µM. For the same molecule, the TGI [14] was over 100 µM, the GI50 [15] was 0.236 µM and the TGI [15] was 3.93 µM. The GI50 [16] was 7.8 µM, the TGI [16] was over 100 µM and the GI50 [17] was 0.0418 µM. The TGI [17] was over 100 µM, the GI50 [18] was 0.29 µM and the TGI [18] was over 100 µM. For the same molecule, the GI50 [19] was 0.433 µM, the TGI [19] was over 100 µM and the GI50 [20] was 0.181 µM. For the same molecule, the TGI [20] was over 100 µM, the GI50 [21] was 0.164 µM and the TGI [21] was 5.49 µM. For the same molecule, the GI50 [22] was under 0.01 µM, the TGI [22] was 0.102 µM and the GI50 [23] was under 0.01 µM. It also gave a TGI [23] of 0.0124 µM, a GI50 [24] of over 100 µM and a TGI [24] of over 100 µM. It also gave a GI50 [25] of 0.0731 µM, a TGI [25] of 43.8 µM and a GI50 [26] of 0.0305 µM. For the same molecule, the TGI [26] was over 100 µM, the GI50 [27] was 1.75 µM and the TGI [27] was 5.95 µM. It also gave a GI50 [28] of 13 µM, a TGI [28] of 82.7 µM and a GI50 [29] of 0.848 µM. It also gave a TGI [29] of over 100 µM, a GI50 [30] of 0.0459 µM and a TGI [30] of 2.54 µM. The GI50 [31] was 0.549 µM, the TGI [31] was over 100 µM and the GI50 [32] was 10.2 µM. It also gave a TGI [32] of over 100 µM, a GI50 [33] of 12.5 µM and a TGI [33] of over 100 µM. For the same molecule, the GI50 [34] was 15.2 µM, the TGI [34] was over 100 µM and the GI50 [35] was over 100 µM. The TGI [35] was over 100 µM, the GI50 [36] was 0.413 µM and the TGI [36] was over 100 µM. It also gave a GI50 [37] of 0.041 µM, a TGI [37] of over 100 µM and a GI50 [38] of 39.2 µM. For the same molecule, the TGI [38] was over 100 µM, the GI50 [39] was over 100 µM and the TGI [39] was over 100 µM. It also gave a GI50 [40] of 0.0415 µM, a TGI [40] of 20.5 µM and a GI50 [41] of 4.82 µM. It also gave a TGI [41] of over 100 µM, a GI50 [42] of over 100 µM and a TGI [42] of over 100 µM. For the same molecule, the GI50 [43] was 68.6 µM, the TGI [43] was over 100 µM and the GI50 [44] was 12.9 µM. The TGI [44] was over 100 µM, the GI50 [45] was 0.0137 µM and the TGI [45] was 0.0616 µM. For the same molecule, the GI50 [46] was 0.048 µM, the TGI [46] was 9.68 µM and the GI50 [47] was 21.4 µM. It also gave a TGI [47] of over 100 µM, a GI50 [48] of 0.0724 µM and a TGI [48] of over 100 µM. The GI50 [49] was 20.9 µM, the TGI [49] was over 100 µM and the GI50 [50] was over 100 µM. The TGI [50] was over 100 µM, the GI50 [51] was 2.92 µM and the TGI [51] was 40.9 µM. The GI50 [52] was 0.0167 µM, the TGI [52] was over 100 µM and the GI50 [53] was 3.67 µM. For the same molecule, the TGI [53] was 83.3 µM, the GI50 [54] was 7.49 µM and the TGI [54] was over 100 µM. It also gave a GI50 [55] of 5.57 µM, a TGI [55] of over 100 µM and a GI50 [56] of 0.012 µM. For the same molecule, the TGI [56] was 0.0529 µM, the GI50 [57] was 0.012 µM and the TGI [57] was 0.138 µM. The GI50 [58] was 14 µM and the TGI [58] was over 100 µM.
For `O=C(O)CSc1cc(NS(=O)(=O)c2ccc(Br)cc2)c2ccccc2c1O`, the GI50 [1] was 6.17 µM, the TGI [1] was 18.3 µM and the GI50 [2] was 16.9 µM. It also gave a TGI [2] of 30.6 µM, a GI50 [3] of 11.6 µM and a TGI [3] of 23.8 µM. For the same molecule, the GI50 [4] was 4.15 µM, the TGI [4] was 13.6 µM and the GI50 [5] was 2.93 µM. It also gave a TGI [5] of 7.45 µM, a GI50 [6] of 10.9 µM and a TGI [6] of 22.8 µM. It also gave a GI50 [7] of 2.02 µM, a TGI [7] of 3.45 µM and a GI50 [8] of 3.12 µM. The TGI [8] was 9.58 µM, the GI50 [9] was 2.37 µM and the TGI [9] was 5.24 µM. The GI50 [10] was 1.92 µM, the TGI [10] was 3.63 µM and the GI50 [11] was 11.7 µM. For the same molecule, the TGI [11] was 23.9 µM, the GI50 [59] was 2.19 µM and the TGI [59] was 4.15 µM. It also gave a GI50 [12] of 10.6 µM, a TGI [12] of 22.4 µM and a GI50 [13] of 1.82 µM. For the same molecule, the TGI [13] was 3.22 µM, the GI50 [14] was 3.02 µM and the TGI [14] was 8.45 µM. For the same molecule, the GI50 [15] was 2.24 µM, the TGI [15] was 4.57 µM and the GI50 [16] was 1.63 µM. For the same molecule, the TGI [16] was 3.04 µM, the GI50 [17] was 3.94 µM and the TGI [17] was 11.9 µM. The GI50 [18] was 2.69 µM, the TGI [18] was 6.51 µM and the GI50 [19] was 1.39 µM. The TGI [19] was 2.71 µM, the GI50 [20] was 4.91 µM and the TGI [20] was 16.2 µM. It also gave a GI50 [21] of 1.79 µM, a TGI [21] of 3.26 µM and a GI50 [22] of 3.11 µM. For the same molecule, the TGI [22] was 7.41 µM, the GI50 [23] was 1.95 µM and the TGI [23] was 3.38 µM. For the same molecule, the GI50 [24] was 1.62 µM, the TGI [24] was 3.15 µM and the GI50 [25] was 1.89 µM. The TGI [25] was 3.72 µM, the GI50 [26] was 2 µM and the TGI [26] was 3.43 µM. The GI50 [27] was 1.39 µM, the TGI [27] was 2.7 µM and the GI50 [28] was 1.96 µM. The TGI [28] was 3.39 µM, the GI50 [29] was 6.7 µM and the TGI [29] was 18.5 µM. The GI50 [30] was 1.82 µM, the TGI [30] was 3.94 µM and the GI50 [31] was 16.2 µM. It also gave a TGI [31] of 29.7 µM, a GI50 [32] of 13.5 µM and a TGI [32] of 26.3 µM. For the same molecule, the GI50 [33] was 7.47 µM, the TGI [33] was 20 µM and the GI50 [34] was 2.22 µM. It also gave a TGI [34] of 4.79 µM, a GI50 [35] of 0.404 µM and a TGI [35] of 1.69 µM. It also gave a GI50 [36] of 1.73 µM, a TGI [36] of 3.12 µM and a GI50 [38] of 1.92 µM. The TGI [38] was 3.97 µM, the GI50 [39] was 2.38 µM and the TGI [39] was 5.77 µM. The GI50 [40] was 1.63 µM, the TGI [40] was 3.37 µM and the GI50 [41] was 1.75 µM. The TGI [41] was 3.44 µM, the GI50 [42] was 2.4 µM and the TGI [42] was 6.02 µM. For the same molecule, the GI50 [43] was 6.61 µM, the TGI [43] was 19 µM and the GI50 [44] was 2.2 µM. The TGI [44] was 3.72 µM, the GI50 [45] was 2.25 µM and the TGI [45] was 4.05 µM. For the same molecule, the GI50 [46] was 1.98 µM, the TGI [46] was 3.52 µM and the GI50 [47] was 5.22 µM. It also gave a TGI [47] of 16.6 µM, a GI50 [48] of 2.03 µM and a TGI [48] of 3.64 µM. For the same molecule, the GI50 [49] was 5.03 µM, the TGI [49] was 15.4 µM and the GI50 [50] was 2.19 µM. The TGI [50] was 4.5 µM, the GI50 [51] was 2.6 µM and the TGI [51] was 4.08 µM. The GI50 [52] was 2.42 µM, the TGI [52] was 6.09 µM and the GI50 [53] was 2.61 µM. For the same molecule, the TGI [53] was 5.11 µM, the GI50 [54] was 14.2 µM and the TGI [54] was 27.2 µM. It also gave a GI50 [55] of 2.55 µM, a TGI [55] of 6.16 µM and a GI50 [56] of 1.65 µM. It also gave a TGI [56] of 3.03 µM, a GI50 [57] of 1.91 µM and a TGI [57] of 3.33 µM. For the same molecule, the GI50 [58] was 2.05 µM and the TGI [58] was 3.91 µM.

From PubChem BioAssay (NCI)
